Assay results published in publication PMC7824859, “BmK NSPK, a Potent Potassium Channel Inhibitor from Scorpion Buthus martensii Karsch, Promotes Neurite Outgrowth via NGF/TrkA Signaling Pathway” (Toxins, 2021).
Read-outs that look alike come from different tables or passages of the source.

Experiments:
[1] = tested on: voltage-gated sodium channels (VGSCs), Na+ currents in SCNs; experiment: Na+ currents, whole-cell patch clamp in SCNs; type: cell-based, C57BL/6 mice
Procedure: (§1) SCN cultures were performed as described previously. The dissociated neurons were planted into poly-L-lysine-coated 35 mm Petri dishes, 96-well plates at densities of 2 × 10^3 cells/dish for patch clamp, 2.25 × 10^5 and 2 × 10^3 cells/well for Ca^2+ imaging and neurite outgrowth experiments, respectively. Cells at 6–8 DIVs (days in vitro) were used to measure K^+ and Na^+ currents, membrane potential, or intracellular Ca^2+ concentration ([Ca^2+]i).
(§2) Current-clamp recordings can provide useful information about the contribution of a channel to membrane potential. Membrane potentials, Na^+ and K^+ currents in SCNs (6–8 DIVs), were recorded using whole-cell patch clamp using an EPC-10 amplifier and PatchMaster software (HEKA, Pfalz, Germany). Pipettes were pulled from 1.5 mm capillary tubing using a P-1000 puller (Sutter Instrument, Novato, CA, USA). The pipette resistance was 2–4 MΩ.
(§3) For current-clamp recordings, to record changes in membrane potential, patch pipettes were filled with intracellular solution containing the following (in mM): KCl 140, MgCl2 5, CaCl2 2.5, EGTA 5, ATP 4, GTP 0.3, and HEPES 10 (pH adjusted to 7.3 with KOH). The external solution contained the following (in mM): NaCl 140, MgCl2 1, KCl 5, CaCl2 2, glucose 10, and HEPES 10 (pH adjusted to 7.3 with NaOH). The membrane potentials were recorded by a 0 pA input current with a duration of 1 s. For voltage-clamp recordings, to record potassium currents, patch pipettes were filled with an internal solution containing (in mM): KCl 140, CaCl2 1, MgCl2 2.5, HEPES 10, EGTA 11, and ATP 4, and pH was adjusted to 7.2 with KOH. Cells were bathed in an external solution containing the following (in mM): choline chloride 150, KCl 5, MgCl2 1, HEPES 10, D-glucose 10, and NMDG 2, and pH was adjusted to 7.4 with KOH. […] Data were collected and analyzed using PatchMaster (HEKA Electronics, Pfalz, Germany) and SigmaPlot (version 10.3, Sigma-Aldrich). […]

sensory neurons = details: via TrkA receptors; ref [39]; cited from earlier work
PC12 cells = details: via TrkA receptors; ref [38]; cited from earlier work
[2] = tested on: protein kinase B (Akt) phosphorylation in SCNs; experiment: Akt phosphorylation in SCNs, Western blot; type: cell-based, C57BL/6 mice; details: 30 nM, n = 4
Procedure: Equal amounts (30 μg) of cell lysates were loaded onto a 10% SDS-PAGE gel and transferred to a nitrocellulose membrane by electroblotting. After blocking, the blots were incubated with primary antibodies against p-Akt (1:1000) overnight at 4 °C and then incubated with the IRDye (680 RD or 800 CW)-labeled secondary antibodies (1:10,000) for 1 h at RT. The membranes were scanned and densitometry was quantified using LI-COR Odyssey Infrared Imaging System and its application software (version 2.1, LI-COR Biotechnology). The membranes were stripped with stripping buffer (LI-COR Biotechnology) and reblotted for analysis of the expression of Akt. Beta-tubulin (1:10,000) was used as a loading control.

[3] = tested on: spinal cord neurons (SCNs), membrane potential; experiment: Membrane potential, whole-cell current-clamp recording in SCNs; type: cell-based, C57BL/6 mice
Procedure: as §1, §2
For current-clamp recordings, to record changes in membrane potential, patch pipettes were filled with intracellular solution containing the following (in mM): KCl 140, MgCl2 5, CaCl2 2.5, EGTA 5, ATP 4, GTP 0.3, and HEPES 10 (pH adjusted to 7.3 with KOH). […] The membrane potentials were recorded by a 0 pA input current with a duration of 1 s. […] Data were collected and analyzed using PatchMaster (HEKA Electronics, Pfalz, Germany) and SigmaPlot (version 10.3, Sigma-Aldrich). […]

[4] = tested on: spinal cord neurons (SCNs); experiment: Neurite outgrowth, MAP2 immunocytochemistry in SCNs; type: cell-based, C57BL/6 mice
Procedure: as §1
Immunocytochemistry was performed as described previously. After fixation, permeabilization, and blocking, neurons were incubated with primary antibody against MAP2 (1:1000) overnight at 4 °C and Alexa Fluor 488-conjugated goat anti-rabbit secondary antibody (1:1000) for 1 h at room temperature (RT), respectively. Hoechst 33,342 (1.6 μg/mL) was added into each well and incubated for 20 min to stain the nuclei. The images were captured by an eclipse inverted fluorescence microscope (Nikon, Tokyo, Japan). Neurites were manually tracked using ImageJ software (FIJI, version 1.51 g, NIH, Bethesda, MD, USA). Only the neurons with total neurite length ≥50 μm were used for quantification. The experiment was performed double blindly.

[5] = tested on: Kv channels, transient (IA) currents in SCNs; experiment: Transient K+ current IA, whole-cell patch clamp in SCNs; type: cell-based, C57BL/6 mice
Procedure: as §1, §2, §3
(§4) All data were presented as mean ± SEM. […] Statistical significance between different groups was calculated using an ANOVA and, where appropriate, a Dunnett′s multiple comparison test. […]

[6] = tested on: Kv channels, delayed-rectifier (ID) currents in SCNs; experiment: Sustained delayed-rectifier K+ current ID, whole-cell patch clamp in SCNs; type: cell-based, C57BL/6 mice
Procedure: as §1, §2, §3, §4

[7] = tested on: Kv channels, outward K+ currents (IK) in SCNs; experiment: Outward K+ current IK (IA + ID), whole-cell patch clamp in SCNs; type: cell-based, C57BL/6 mice
Procedure: as §1, §2
For current-clamp recordings, to record changes in membrane potential, patch pipettes were filled with intracellular solution containing the following (in mM): KCl 140, MgCl2 5, CaCl2 2.5, EGTA 5, ATP 4, GTP 0.3, and HEPES 10 (pH adjusted to 7.3 with KOH). The external solution contained the following (in mM): NaCl 140, MgCl2 1, KCl 5, CaCl2 2, glucose 10, and HEPES 10 (pH adjusted to 7.3 with NaOH). The membrane potentials were recorded by a 0 pA input current with a duration of 1 s. For voltage-clamp recordings, to record potassium currents, patch pipettes were filled with an internal solution containing (in mM): KCl 140, CaCl2 1, MgCl2 2.5, HEPES 10, EGTA 11, and ATP 4, and pH was adjusted to 7.2 with KOH. Cells were bathed in an external solution containing the following (in mM): choline chloride 150, KCl 5, MgCl2 1, HEPES 10, D-glucose 10, and NMDG 2, and pH was adjusted to 7.4 with KOH. To record sodium currents, patch pipettes were filled with an internal solution containing the following (in mM): CsF 135, HEPES 5, and NaCl 10, and pH was adjusted to 7.2 with CsOH. Cells were bathed in external solution containing the following (in […]): NaCl 30, MgCl2 1, CaCl2 1.8, CsCl 5, D-glucose 25, KCl 5, HEPES 5, TEACl 90, and KCl 5, and pH was adjusted to 7.4 with NaOH. Capacitance and series resistance were compensated using computer-controlled circuitry of the amplifier. The outward potassium currents (IK), which contain both transient (IA) and sustained delayed-rectifier (ID) components, were elicited by a series of depolarizing pulses from −110 mV to the potentials ranged from −60 to +80 mV in a 10 mV increment. To record the ID currents, voltages were stepped to the potentials ranged from −60 to +80 mV in a 10 mV increment from a 200 ms pre-depolarization potential of −40 mV that inactivated IA currents. IA currents were obtained by subtracting ID currents from IK currents. Na^+ currents were elicited by depolarization steps from a holding potential of −100 mV to +45 mV in a 5 mV increment. Data were collected and analyzed using PatchMaster (HEKA Electronics, Pfalz, Germany) and SigmaPlot (version 10.3, Sigma-Aldrich). Concentration–response curves were fitted using the Hill equation: Inor= C + A/[1 + ([BmK NSPK]/EC50)^p] […]
as §4

[8] = tested on: spinal cord neurons (SCNs); experiment: Spontaneous calcium oscillation (SCO) measurement, FLIPR Tetra, primary cultured spinal cord neurons; type: cell-based, C57BL/6 mice; details: 6-8 DIV, N = 4 wells; for EC50: primary cultured SCNs, FLIPR Tetra, Hill slope = 1.0
Procedure: as §1
The intracellular Ca^2+ concentration [Ca^2+]i of SCNs was measured using FLIPR^Tetra® system (Molecular Devices, Sunnyvale, CA, USA) as described previously.
All data were presented as mean ± SEM. Graphing and data analysis were performed using GraphPad Prism software (Version 6.0, San Diego, CA, USA). Concentration–response curves were fitted by a nonlinear logistic equation. The IC50 values and 95% confidence intervals (CI) were determined by nonlinear regression using GraphPad Prism software. Statistical significance between different groups was calculated using an ANOVA and, where appropriate, a Dunnett′s multiple comparison test. A p-value below 0.05 was considered statistically significant.

[9] = tested on: nerve growth factor (NGF) release in SCNs; experiment: NGF release into culture medium of SCNs, ELISA; type: cell-based, C57BL/6 mice; details: 10 nM, n = 4
Procedure: The NGF levels in the culture medium were determined by enzyme-linked immunosorbent assay (ELISA) kits according to the manufacturer’s instructions.

NC1=N[C@H](O)[C@H]2[C@H]3O[C@]4(O)O[C@@H]([C@@H](O)[C@@]2(N1)[C@@H]4O)[C@]3(O)CO [tetrodotoxin, reference compound]
Effect on Na+ currents [1]: suppressed the Na^+ currents

nerve growth factor [NGF]
Effect on neurite extension (sensory neurons): enhance the neurite extension | Effect on neurite extension (PC12 cells): enhance the neurite extension

BmK NSPK: new short-chain scorpion peptide purified from Buthus martensii Karsch venom, Kv channel inhibitor, sequence by Edman degradation (VGKNVICIHSGQCLIPCIDAGMRFGICKNGICDCTPKG)
Duration of Akt phosphorylation increase [2]: ≥ 30 min | Onset of Akt phosphorylation increase [2]: ≤ 5 min | Phosphorylated levels of Akt ([2]; p < 0.01 vs. Veh): rapidly increased phosphorylated levels of Akt | Effect on Na+ currents ([1]; 1000 nM, holding −100 mV to +45 mV in 5 mV increments, N = 4–5 neurons): no effect on the Na^+ currents | Effect on VGSCs ([1]; discussion wording): little effect on VGSCs | Apparent affinity for membrane depolarization (and SCO increase) ([3]; SCN cultures, discussion wording): low apparent nanomolar affinity | Effect on membrane potential ([3]; SCNs, 6-8 DIV, 0 pA input, whole-cell current clamp): concentration-dependent membrane depolarization | Concentration of maximal stimulation of neurite extension ([4]; 48 h exposure commencing 5 h post-plating): ~ 10 nM | Effect on neurite extension ([4]; 48 h exposure commencing 5 h post-plating, MAP2 staining): stimulated neurite extension in cultured SCNs in a nonmonotonic manner | Effect on IA currents ([5]; 300 nM, each depolarizing potential): suppressed IA currents at each depolarizing potential | Maximal inhibition of IA currents ([5]; Figure 4J): ~ 75% | IC50 ([5]; IA = IK minus ID, 95% CI 0.41–2.13 nM, Hill slope = −1.27, N = 4–5 neurons, read-out: IC50, suppression of IA currents): 0.93 nM | Effect on ID currents ([6]; 300 nM, potentials −60 to +80 mV after 200 ms pre-depolarization at −40 mV): inhibited ID currents elicited by a series of depolarization potentials with voltage dependence | Maximal inhibition of ID currents ([6]; Figure 4J): ~ 43% | IC50 ([6]; depolarization from -40 mV to +70 mV, 95% CI 0.68–7.44 nM, Hill slope = −0.86, N = 4–5 neurons, read-out: IC50, suppression of ID currents): 2.24 nM | Voltage dependence of IK inhibition ([7]; 300 nM): voltage-dependent | Effect on IK currents ([7]; 300 nM, depolarizing potentials −60 to +80 mV from holding −110 mV): inhibited the IK currents at all depolarized potentials | IC50 ([7]; depolarization from -110 mV to +70 mV, 95% CI 0.68–8.61 nM, Hill slope = −0.86, N = 4–5 neurons, read-out: IC50, suppression of IK currents): 2.42 nM | Potency on outward potassium channel currents ([7]; discussion wording, SCNs): single-digit nanomolar concentrations | Completeness of inhibition of IK, IA and ID currents ([7]; highest concentration (100 nM)): incomplete even at the highest concentration (100 nM) | Effect on amplitude and frequency of SCOs ([8]; SCNs): rapid and sustained increase in both the amplitude and frequency of SCOs | EC50 ([8]; 95% CI 2.22–17.4 nM, read-out: EC50 for increase in SCO frequency): 6.22 nM | EC50 ([8]; 95% CI 4.00–45.1 nM, read-out: EC50 for increase in SCO amplitude): 13.4 nM | Duration of NGF release [9]: at least 8 h | Increase in NGF release ([9]; p < 0.05 vs. Veh): ~ 50%

Cn1cc(/C=C2\C(=O)Nc3cccnc32)c2ccccc21 [GW 441756, reference compound]
Effect on BmK NSPK-induced neurite outgrowth ([4]; GW 441756 1 μM added 30 min before BmK NSPK (10 nM), 48 h, p < 0.01 vs. BmK NSPK): abolished BmK NSPK-induced neurite outgrowth
